Assay results published in publication PMC9814219 (Communications Chemistry, 2020).

Assays:
aAbPPO4 = biological target: T1, aAbPPO4 (Agaricus bisporus, UniProt C7FF05); experiment: activity on dopamine after pre-incubation and ultrafiltration, […] nm; type: biochemical
T1 construct: gene PPO4; N-terminal GST tag cleaved off with HRV 3C; expressed in E. coli BL21(DE3)
T1 sequence (C7FF05 1-379): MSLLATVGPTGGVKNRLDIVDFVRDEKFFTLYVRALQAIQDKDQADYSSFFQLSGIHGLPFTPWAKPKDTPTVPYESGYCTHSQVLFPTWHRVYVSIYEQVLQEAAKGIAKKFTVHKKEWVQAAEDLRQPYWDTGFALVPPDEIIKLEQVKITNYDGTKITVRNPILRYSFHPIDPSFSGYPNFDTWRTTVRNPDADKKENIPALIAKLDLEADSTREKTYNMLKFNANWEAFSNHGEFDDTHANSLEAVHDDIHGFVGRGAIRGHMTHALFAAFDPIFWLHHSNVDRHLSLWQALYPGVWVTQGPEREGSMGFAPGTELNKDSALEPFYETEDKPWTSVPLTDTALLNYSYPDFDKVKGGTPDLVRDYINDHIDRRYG

EstA = biological target: T2, EstA (Clostridium botulinum, UniProt A5I055)
T2 construct: gene lipA
T2 sequence (A5I055 1-480): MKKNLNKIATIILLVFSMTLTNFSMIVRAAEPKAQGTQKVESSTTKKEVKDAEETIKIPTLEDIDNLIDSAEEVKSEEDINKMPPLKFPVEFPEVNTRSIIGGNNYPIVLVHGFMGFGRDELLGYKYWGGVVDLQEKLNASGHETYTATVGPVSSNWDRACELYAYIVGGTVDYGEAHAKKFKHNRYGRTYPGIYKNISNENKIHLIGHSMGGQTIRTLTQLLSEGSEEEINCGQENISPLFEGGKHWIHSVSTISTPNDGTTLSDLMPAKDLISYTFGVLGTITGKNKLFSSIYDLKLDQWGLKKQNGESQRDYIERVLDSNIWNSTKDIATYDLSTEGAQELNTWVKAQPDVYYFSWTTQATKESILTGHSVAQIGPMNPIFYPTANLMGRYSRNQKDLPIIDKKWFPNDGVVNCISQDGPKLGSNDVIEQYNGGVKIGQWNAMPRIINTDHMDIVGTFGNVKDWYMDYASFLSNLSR

| Structure (SMILES) | activity on dopamine after pre-incubation and ultrafiltration, 475 nm (aAbPPO4) | photometric, 4-nitrophenol release at 405 nm (EstA) |
| --- | --- | --- |
| O=S(O)O [sodium bisulphite] | the loss of PPO activity of aAbPPO4 was verified by an activity assay with dopamine |  |
| CCCC(=O)Oc1ccc([N+](=O)[O-])cc1 [para-nitrophenyl butyrate] |  | on the model substrate para-nitrophenyl butyrate (pNPB) compared to the uncleaved enzyme |
